Results taken from US7247633B2, “Pyrimidine compounds and their use” (Biovitrum AB, priority 2000, dated 2007).
Where a name gives a salt, the structure may show the parent alone.

Target: T1, human 5-HT2c receptor (Homo sapiens, UniProt P28335)
T1 construct: expressed in transfected cells
T1 sequence (P28335 33-458): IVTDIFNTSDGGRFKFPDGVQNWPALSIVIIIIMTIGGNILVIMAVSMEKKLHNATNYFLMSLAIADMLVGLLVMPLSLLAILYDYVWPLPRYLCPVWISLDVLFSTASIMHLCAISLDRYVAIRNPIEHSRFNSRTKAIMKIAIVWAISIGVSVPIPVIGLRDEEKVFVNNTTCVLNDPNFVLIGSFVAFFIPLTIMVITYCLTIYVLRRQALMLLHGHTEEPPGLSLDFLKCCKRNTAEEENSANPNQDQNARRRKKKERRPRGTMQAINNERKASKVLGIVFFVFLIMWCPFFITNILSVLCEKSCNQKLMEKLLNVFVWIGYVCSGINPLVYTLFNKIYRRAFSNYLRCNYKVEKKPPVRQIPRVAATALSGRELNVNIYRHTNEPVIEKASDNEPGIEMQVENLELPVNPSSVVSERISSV
Assay: 5-HT2c receptor affinity assay (displacement of 3H-labelled 5-HT, Scintillation Proximity Assay)
Details: membranes of HEK293 cells stably expressing human 5-HT2c receptor; 3H-5-HT; non-specific binding 5 μM mianserin
Protocol: The 5-HT2c receptor affinity of compounds in the Examples was determined in competition experiments, where the ability of each compound in serial dilution to displace ^3H-labelled 5-HT, bound to membranes prepared from a transfected HEK293 cell line stably expressing the human 5-HT2c receptor protein, was monitored by Scintillation Proximity Assay technology. Non-specific binding was defined using 5 μM mianserin.

Structure (SMILES)	Ki [nM]
CC(Oc1cncc(N2CCNCC2)n1)c1cccc(F)c1 (centres unmarked) [Example 2, 2-[1-(3-Fluorophenyl)ethoxy]-6-(1-piperazinyl)pyrazine]	8
c1cncc(CCOc2cncc(N3CCNCC3)n2)c1 [Example 12, 2-(1-Piperazinyl)-6-[2-(3-pyridinyl)ethoxy]pyrazine]	197
c1coc(-c2cncc(N3CCNCC3)n2)c1 [Example 15, 2-(2-Furyl)-6-(1-piperazinyl)pyrazine]	616
c1cc(OCc2cccs2)nc(N2CCNCC2)c1 [Example 18, 1-[6-(2-Thienylmethoxy)-2-pyridinyl]piperazine]	92
c1ccc(COc2cncc(N3CCNCC3)n2)cc1 [Example 20, 2-(Benzyloxy)-6-(1-piperazinyl)pyrazine]	28
FCCOc1cncc(N2CCNCC2)n1 [Example 23, 2-(2-Fluoroethoxy)-6-(1-piperazinyl)pyrazine]	478
c1ccc(COc2ccnc(N3CCNCC3)n2)cc1 [Example 32, 4-(Benzyloxy)-2-(1-piperazinyl)pyrimidine]	48
c1ccc(CCCCCOc2cncc(OC3CCNCC3)n2)cc1 [Example 48, 2-[(5-Phenylpentyl)oxy]-6-(4-piperidinyloxy)pyrazine]	37

Test system: not given
Assay: not given
Details: not given

Structure (SMILES)	melting point [°C]
c1cc2c(cc1COc1cncc(N3CCNCC3)n1)OCO2 (as salt: acetate) [Example 3, 2-(1,3-Benzodioxol-5-ylmethoxy)-6-(1-piperazinyl)pyrazine]	124 to 127
COc1cccc(COc2cncc(N3CCNCC3)n2)c1 (as salt: acetate) [Example 4, 2-[(3-Methoxybenzyl)oxy]-6-(1-piperazinyl)pyrazine]	111 to 113
Fc1cc(F)cc(COc2cncc(N3CCNCC3)n2)c1 (as salt: acetate) [Example 6, 2-[(3,5-Difluorobenzyl)oxy]-6-(1-piperazinyl)pyrazine]	70 to 72
c1ccc(-c2ccc(COc3cncc(N4CCNCC4)n3)cc2)cc1 (as salt: acetate) [Example 7, 2-([1,1′-Biphenyl]-4-ylmethoxy)-6-(1-piperazinyl)pyrazine]	102 to 104
Clc1cccc(CCOc2cncc(N3CCNCC3)n2)c1 (as salt: acetate) [Example 8, 2-[2-(3-Chlorophenyl)ethoxy]-6-(1-piperazinyl)pyrazine]	118 to 119
c1ccc2c(c1)CCCC2Oc1cncc(N2CCNCC2)n1 (centres unmarked) (as salt: acetate) [Example 9, 6-(1-Piperazinyl)-2-pyrazinyl 1,2,3,4-tetrahydro-1-naphthalenyl ether]	160 to 162
FC(F)(F)c1ccc(COc2cncc(N3CCNCC3)n2)cc1 (as salt: acetate) [Example 10, 2-(1-Piperazinyl)-6-{[4-(trifluoromethyl)benzyl]oxy}pyrazine]	84 to 85
c1cncc(COc2cncc(N3CCNCC3)n2)c1 (as salt: acetate) [Example 11, 2-(1-Piperazinyl)-6-(3-pyridinylmethoxy)pyrazine]	98 to 99
c1cncc(CCOc2cncc(N3CCNCC3)n2)c1 (as salt: acetate) [Example 12, 2-(1-Piperazinyl)-6-[2-(3-pyridinyl)ethoxy]pyrazine]	90 to 91
COc1ccccc1COc1cncc(N2CCNCC2)n1 (as salt: hydrochloride) [Example 5, 2-[(2-Methoxybenzyl)oxy]-6-(1-piperazinyl)pyrazine]	171 to 173
c1ccc(CCOc2cncc(N3CCNCC3)n2)cc1 (as salt: maleate) [Example 14, 2-(2-Phenylethoxy)-6-(1-piperazinyl)pyrazine]	166 to 168
c1ccc(COc2cncc(N3CCNCC3)n2)cc1 (as salt: maleate) [Example 20, 2-(Benzyloxy)-6-(1-piperazinyl)pyrazine]	155 to 156
c1ccc2c(c1)OCCC2Oc1cncc(N2CCNCC2)n1 (centres unmarked) (as salt: maleate) [Example 26, 2-(3,4-Dihydro-2H-chromen-4-yloxy)-6-(1-piperazinyl)pyrazine]	179.5 to 182
c1ccc2c(c1)ccn2CCOc1cncc(N2CCNCC2)n1 (as salt: maleate) [Example 28, 2-[2-(1H-Indol-1-yl)ethoxy]-6-(1-piperazinyl)pyrazine]	160.5 to 163
COc1cc(COc2cncc(N3CCNCC3)n2)cc(OC)c1 (as salt: maleate) [Example 68, 2-[(3,5-Dimethoxybenzyl)oxy]-6-(1-piperazinyl)pyrazine]	134 to 137
COc1ccc(CCOc2cncc(N3CCNCC3)n2)cc1 (as salt: maleate) [Example 69, 2-[2-(4-Methoxyphenyl)ethoxy]-6-(1-piperazinyl)pyrazine]	149 to 151
c1ccc2c(CCOc3cncc(N4CCNCC4)n3)c[nH]c2c1 [Example 29, 2-[2-(1H-Indol-3-yl)ethoxy]-6-(1-piperazinyl)pyrazine]	133 to 135
Fc1ccc(COc2cncc(N3CCNCC3)n2)cc1 [Example 42, 2-[(4-Fluorobenzyl)oxy]-6-(1-piperazinyl)pyrazine]	183
COc1cccc(CCOc2cncc(OC3CCNCC3)n2)c1 [Example 45, 2-[2-(3-Methoxyphenyl)ethoxy]-6-(4-piperidinyloxy)pyrazine]	86 to 87

Target: T2, 5-HT2c receptor (Mus musculus, UniProt P34968)
T2 construct: mice that express the normal 5-HT2c receptor; host or cells: mice, in vivo
T2 sequence (P34968 33-459): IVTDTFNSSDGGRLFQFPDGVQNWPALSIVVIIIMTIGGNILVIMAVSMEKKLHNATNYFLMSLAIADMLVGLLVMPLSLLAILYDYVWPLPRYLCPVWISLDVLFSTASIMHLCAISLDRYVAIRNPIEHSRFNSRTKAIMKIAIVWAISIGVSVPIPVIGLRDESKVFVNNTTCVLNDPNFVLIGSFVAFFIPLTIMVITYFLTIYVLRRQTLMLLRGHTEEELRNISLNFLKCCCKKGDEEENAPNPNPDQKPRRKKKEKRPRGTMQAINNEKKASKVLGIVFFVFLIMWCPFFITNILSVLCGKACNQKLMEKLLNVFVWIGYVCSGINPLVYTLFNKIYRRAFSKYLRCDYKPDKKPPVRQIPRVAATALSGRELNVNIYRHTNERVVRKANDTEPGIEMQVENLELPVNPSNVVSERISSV
Assay: not given
Details: mice that express the normal 5-HT2c receptor; cited from earlier work

Structure (SMILES)	food intake
Clc1cccc(N2CCNCC2)c1 [mCPP, m-chlorophenylpiperazine]	reduces food intake

Test system: 5-HT2c receptor
Assay: not given
Details: mice expressing the mutated inactive form of the 5-HT2c receptor; cited from earlier work

Structure (SMILES)	food intake
Clc1cccc(N2CCNCC2)c1 [mCPP, m-chlorophenylpiperazine]	lacks activity

Test system: not given
Assay: not given
Details: obese subjects, after 2 weeks of treatment; cited from earlier work

Structure (SMILES)	body weight
Clc1cccc(N2CCNCC2)c1 [mCPP, m-chlorophenylpiperazine]	slight but sustained reduction in body weight

Test system: not given
Assay: not given
Details: controlled studies; cited from earlier work

Structure (SMILES)	weight reduction
CCN[C@@H](C)Cc1cccc(C(F)(F)F)c1 [dexfenfluramine]	exhibited weight reduction
CNCCC(Oc1ccc(C(F)(F)F)cc1)c1ccccc1 (centres unmarked) [fluoxetine]	exhibited weight reduction
